US20200360249A1, “AN ANTIMICROBIAL COMPOSITION” (Conopco, Inc., d/b/a UNILEVER, priority 2017, published 2020)

Experiments:
Type in all cases: cell-based
M. furfur = test: Antifungal activity, log reduction by plate count; details: M. furfur ATCC 14521; contact time 24 hr; 10 mg sample in 1000 μL inoculum, 10^5 cells/ml; 32° C.
Protocol: The samples as given in Table-1 were subjected to their anti fungal efficacy on M. furfur as described hereinafter.
Plate was at 30° C. for 72 hrs. Approximately 72 hrs prior to testing, the plate culture was inoculated onto the surface of another sterile Modified Dixon agar plate and incubated at 30° C. for approximately 72 hrs. From second subculture, the optical density of culture is adjusted at 620 nm to give cell strength of 10^7 cfu/ml. The culture was further diluted by 100 times to achieve 10^5 cfu/ml in Pityrosporum broth.
10 mg of each sample was thoroughly mixed by vortex and weighed into a sterile 1.5 ml Eppendorf tube. 1000 μL of M. furfur inocula were added to the above tubes and a blank sterile 1.5 ml Eppendorf tube (no particles as control), respectively so that the load in each tube is 10^5 cells/ml.
All the samples were shaken at 120 RPM in a shaker incubator at 32° C. After 24 hours incubation, 10 μL of the samples were withdrawn from the respective 1.5 ml Eppendorf tubes and diluted with 990 μL of Pityrosporum broth. This represents a 10^2 dilution. Serial dilution was performed from the above 24 hours inocula and plated 100 μL of dilution onto modified Dixon plate. Plate dilution 10^2, 10^3, 10^4 and […]. All the plates were kept for incubation at 32° C. for 24-72 hrs. Plate count for all the plates were done.

M. furfur ATCC 14521 = test: Disc diffusion technique (agar cup method), zone of inhibition; details: test conc. 0.5 %, Modified Dixon agar, 72 hrs at 32 C, disc diameter 10 mm
Protocol: The plates are swabbed with 100 μl of test inoculum containing approximately 10^6 cells/ml. The swabbed plates are allowed to dry for 5 mins so to absorb excess of remaining culture fluid. The discs impregnated with different test solution were placed on the inoculated agar surface. Each plate was labelled with different test solution and their respective concentration used. The agar plates are incubated for 72 hrs at 32° C. Zones of inhibition are measured using calibrated mm ruler.
Media used: Modified Dixon agar
Incubation conditions: 72 hrs at 32 C
Diameter of disc used: 10 mm (Himedia make)

Staphylococcus aureus = test: Antibacterial efficacy, log reduction by plate count; details: contact time 60 seconds, 40 mg sample in 100 ml water, pH 10, room temperature
Protocol: 40 mg of the powdered sample was dispersed in 100 ml deionised sterile water. The pH was maintained at 10 using NaOH. 8 ml of the solution was taken, to it 1 ml cell (1 mL bacterial suspension of Staphylococcus aureus (stock 10^9 cells/MI) and 1 ml of distilled water was added. The incubation was done at room temperature for 30 and 60 seconds respectively. 1 ml of the above reaction mixtures was taken and added to 9 ml of Dey-Engley Neutralizing Broth. This was further incubated for 5 minutes. This represents 10^−1 dilution. Serial dilutions were performed for plate count.

Molecule | Log reduction (M. furfur) | zone of inhibition (mm) (M. furfur ATCC 14521) | Log reduction (Staphylococcus aureus)
NC(=O)c1ccccn1.[Zn] [D, Zinc picolinamide] | 1.92 |  | 
Zinc isoniacinamide [B] | 1.98 | 0 mm | 0.9
Zinc niacinamide | 1.96 |  | 
